For this test, the target named is ROCK2 (Homo sapiens (Human), UniProt O75116). Nature of the test: ROCK assay (Caliper LABCHIP peptide phosphorylation, 5 μM ATP). The format is biochemical. As to the method: The effectiveness of compounds of the present invention as ROCK inhibitors can be determined in a 30 μL assay containing 20 mM HEPES, pH 7.5, 20 mM MgCl2, 0.015% Brij-35, 4 mM DTT, 5 μM ATP and 1.5 μM peptide substrate (FITC-AHA-AKRRRLSSLRA-OH) (SEQ ID No. 1). Compounds were dissolved in DMSO so that the final concentration of DMSO was <2%, and the reaction was initiated with Rho kinase variants. After incubation, the reaction was terminated by the addition of EDTA and the phosphorylated and non-phosphorylated peptides separated using a LABCHIP® 3000 Reader (Caliper Life Sciences). […] Compounds were tested in dose-response format, and the inhibition of kinase activity was calculated at each concentration of compound. The inhibition data were fit using a curve-fitting program to determine the IC50; i.e., the concentration of compound required to inhibit 50% of kinase activity. Representative Examples were tested in the ROCK assay described above and found having ROCK inhibitory activity. A range of ROCK inhibitory activity (IC50 values) of ≤50 μM (50000 nM) was observed. Table A below lists the ROCK IC50 values measured for the following examples.
Sequence of ROCK2 (O75116 whole entry, species assumed): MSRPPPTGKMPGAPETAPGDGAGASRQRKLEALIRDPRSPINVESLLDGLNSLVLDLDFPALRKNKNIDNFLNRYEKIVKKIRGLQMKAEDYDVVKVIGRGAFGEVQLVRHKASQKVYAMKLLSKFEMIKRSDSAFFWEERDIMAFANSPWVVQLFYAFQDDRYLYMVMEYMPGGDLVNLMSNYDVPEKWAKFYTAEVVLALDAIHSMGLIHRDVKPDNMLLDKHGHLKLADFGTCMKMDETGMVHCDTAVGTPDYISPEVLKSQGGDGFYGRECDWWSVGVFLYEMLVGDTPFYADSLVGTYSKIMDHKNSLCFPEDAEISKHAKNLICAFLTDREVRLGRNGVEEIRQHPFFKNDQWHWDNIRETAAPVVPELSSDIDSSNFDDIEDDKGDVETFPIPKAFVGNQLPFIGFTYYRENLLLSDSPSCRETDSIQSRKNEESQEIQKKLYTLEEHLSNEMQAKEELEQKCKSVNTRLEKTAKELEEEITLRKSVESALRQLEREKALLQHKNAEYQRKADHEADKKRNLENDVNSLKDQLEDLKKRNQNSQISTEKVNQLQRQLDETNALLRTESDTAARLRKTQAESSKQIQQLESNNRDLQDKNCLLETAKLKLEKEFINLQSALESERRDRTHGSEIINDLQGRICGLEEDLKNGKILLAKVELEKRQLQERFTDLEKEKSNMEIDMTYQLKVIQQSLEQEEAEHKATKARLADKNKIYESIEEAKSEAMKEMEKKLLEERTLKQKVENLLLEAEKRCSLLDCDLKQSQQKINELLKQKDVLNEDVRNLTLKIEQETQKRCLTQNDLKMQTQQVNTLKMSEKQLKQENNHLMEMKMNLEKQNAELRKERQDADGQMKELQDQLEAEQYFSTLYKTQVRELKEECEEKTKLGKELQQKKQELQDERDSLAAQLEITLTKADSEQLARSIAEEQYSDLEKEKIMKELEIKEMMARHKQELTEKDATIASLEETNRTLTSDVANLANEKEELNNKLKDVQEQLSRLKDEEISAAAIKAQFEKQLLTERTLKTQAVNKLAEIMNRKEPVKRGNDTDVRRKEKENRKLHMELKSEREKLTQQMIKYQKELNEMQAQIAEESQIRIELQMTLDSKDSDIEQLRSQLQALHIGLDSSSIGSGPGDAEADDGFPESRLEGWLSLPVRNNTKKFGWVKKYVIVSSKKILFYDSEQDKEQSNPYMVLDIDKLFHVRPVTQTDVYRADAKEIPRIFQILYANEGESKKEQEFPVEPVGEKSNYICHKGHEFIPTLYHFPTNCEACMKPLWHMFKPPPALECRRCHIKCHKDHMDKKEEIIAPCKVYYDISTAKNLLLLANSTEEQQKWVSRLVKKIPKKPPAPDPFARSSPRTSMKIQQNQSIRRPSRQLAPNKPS

As usually defined, the IC50 is the concentration at which inhibition is half-maximal. Higher therefore signals lower potency.

On to `NC(=O)c1cccnc1O[C@H]1C[C@@]2(C[C@H](Nc3ncc4ccccc4n3)C2)C1` (stereo partly drawn) [Example 28, 2-(((2S,4s, 6S)-6-(quinazolin-2-ylamino)spiro [3.3]heptan-2-yl)oxy) nicotinamide], for which the midpoint of inhibition, the IC50, lay at 258 nM.
Under `NC(=O)c1cccnc1O[C@H]1C[C@@]2(C[C@H](Nc3nc4c(F)cccc4o3)C2)C1` (stereo partly drawn) [Example 6, 2-(((2S,4s,6S)-6-((4-fluorobenzo[d]oxazol-2-yl)amino)spiro[3.3]heptan-2-yl)oxy)nicotinamide] stands 110 nM.
With `Cn1c(N[C@H]2C[C@]3(C2)C[C@H](Oc2ncccc2C(N)=O)C3)nc2c(F)cccc21` (stereo partly drawn) [Example 14, 2-(((2S,4s,6S)-6-((4-fluoro-1-methyl-1H-benzo[d]imidazol-2-yl)amino)spiro[3.3]heptan-2-yl)oxy)nicotinamide], the IC50 came out at 320 nM.
Take `NC(=O)c1cccnc1O[C@H]1C[C@@]2(C[C@H](Nc3cnc4ccc(F)cc4n3)C2)C1` (stereo partly drawn) [Example 22, 2-(((2S,4s,6S)-6-((7-fluoro-quinoxalin-2-yl)amino)spiro[3.3]heptan-2-yl)oxy) nicotinamide]: the midpoint of inhibition, the IC50, lay at 148 nM.
Regarding `[H][C@]1(Oc2ncccc2C(N)=O)C[C@]2(C[C@@H](Nc3nccc(NC4CCC(F)(F)CC4)n3)C2)C1` (stereo partly drawn) [Example 44, 2-(((2S,4s,6S)-6-((4-((4,4-difluoro-cyclohexyl)amino)pyrimidin-2-yl)amino)spiro[3.3]heptan-2-yl)oxy) nicotinamide], 489 nM corresponded to half-maximal inhibition (IC50).
Under `[H][C@]1(Oc2ncccc2C(N)=O)C[C@]2(C[C@@H](Nc3nccc(-c4ccncc4)n3)C2)C1` (stereo partly drawn) [Example 46, 2-(((2S,4s,6S)-6-((4-(pyridin-4-yl)pyrimidin-2-yl)amino)spiro[3.3]heptan-2-yl)oxy)nicotinamide] stands 557 nM.
`NC(=O)c1cccnc1O[C@H]1C[C@@]2(C[C@H](Nc3cnc4cc(F)ccc4n3)C2)C1` (stereo partly drawn) [Example 21, 2-(((2S,4s,6S)-6-((6-fluoroquinoxalin-2-yl)amino)spiro[3.3]heptan-2-yl)oxy)nicotinamide] had an IC50 of 73 nM.
Turning to `[H][C@]1(Oc2ncccc2C(N)=O)C[C@]2(C[C@@H](Nc3nccc(N4CCC(F)(F)CC4)n3)C2)C1` (stereo partly drawn) [Example 37, 2-(((2S,4s,6S)-6-((4-(4,4-difluoro-piperidin-1-yl)pyrimidin-2-yl)amino)spiro[3.3]heptan-2-yl)oxy) nicotinamide], the half-maximal inhibitory concentration (IC50) amounted to 202 nM.
Molecule `[H][C@]1(Oc2ncccc2C(N)=O)C[C@]2(C[C@@H](Nc3nccc(NCC(C)(C)CO)n3)C2)C1` (stereo partly drawn) [Example 45, 2-(((2S,4s,6S)-6-((4-((3-hydroxy-2,2-dimethyl-propyl)amino)pyrimidin-2-yl)amino)spiro[3.3]heptan-2-yl)oxy) nicotinamide] had an IC50 of 678 nM.
Under `N#Cc1ccc(-c2cnc(N[C@H]3CC4(C3)C[C@H](Oc3ncccc3C(N)=O)C4)nc2)cc1` (stereo partly drawn) [Example 34, 2-(((2S,4s,6S)-6-((5-(4-cyanophenyl)pyrimidin-2-yl)amino)spiro[3.3]heptan-2-yl)oxy)nicotinamide] stands 105 nM; under `[H][C@]1(Oc2ncccc2C(N)=O)C[C@]2(C[C@@H](Nc3nccc(N4CCCC(F)C4)n3)C2)C1` (stereo partly drawn) [Example 41, 2-(((2S,4s,6S)-6-((4-(3-fluoro-piperidin-1-yl)pyrimidin-2-yl)amino)spiro [3.3]heptan-2-yl)oxy) nicotinamide], 496 nM.
With `NC(=O)c1cccnc1O[C@H]1C[C@@]2(C[C@H](Nc3nnc(-c4ccc(F)c(F)c4)o3)C2)C1` (stereo partly drawn) [Example 18, 2-(((2S,4s,6S)-6-((5-(3,4-difluorophenyl)-1,3,4-oxadiazol-2-yl)amino)spiro[3.3]heptan-2-yl)oxy)nicotinainide] the figure was 326 nM.
With `[H][C@]1(Oc2ncccc2C(N)=O)C[C@]2(C[C@@H](Nc3nccc(-c4cccc(C(=O)N(C)C)c4)n3)C2)C1` (stereo partly drawn) [Example 53, 2-(((2S,4s,6S)-6-((4-(3-(dimethyl-carbamoyl)phenyl)pyrimidin-2-yl)amino)spiro[3.3]heptan-2-yl)oxy) nicotinamide] the figure was 284 nM; with `[H][C@]1(Oc2ncccc2C(N)=O)C[C@]2(C[C@@H](Nc3ccnc(-c4cccc(F)c4)n3)C2)C1` (stereo partly drawn) [Example 70, 2-(((2S,4s,6S)-6-((2-(3-fluorophenyl)pyrimidin-4-yl)amino)spiro[3.3]heptan-2-yl)oxy) nicotinamide], 2240 nM; with `[H][C@]1(Oc2ncccc2C(N)=O)C[C@]2(C[C@@H](Nc3ccnc(N4CC(F)(F)C4)n3)C2)C1` (stereo partly drawn) [Example 68, 2-(((2S,4s,6S)-6-((2-(3,3-difluoro-azetidin-1-yl)pyrimidin-4-yl)amino)spiro[3.3]heptan-2-yl)oxy) nicotinamide], 1300 nM.
On to `[H][C@]1(Oc2ncccc2C(N)=O)C[C@]2(C[C@@H](Nc3nccc(-c4ccc(C#N)cc4)n3)C2)C1` (stereo partly drawn) [Example 48, 2-(((2S,4s,6S)-6-((4-(4-cyanophenyl)pyrimidin-2-yl)amino)spiro[3.3]heptan-2-yl)oxy) nicotinamide], for which the half-maximal inhibitory concentration (IC50) is 204 nM.
`[H][C@]1(Oc2ncccc2C(N)=O)C[C@]2(C[C@@H](Nc3nccc(N4CCC(F)CC4)n3)C2)C1` (stereo partly drawn) [Example 40, 2-(((2S,4s,6S)-6-((4-(4-fluoro-piperidin-1-yl)pyrimidin-2-yl)amino)spiro [3.3]heptan-2-yl)oxy) nicotinamide] registered a half-maximal inhibitory concentration (IC50) of 378 nM.
With `[H][C@]1(Oc2ncccc2C(N)=O)C[C@]2(C[C@@H](Nc3nccc(-c4cccc(F)c4)n3)C2)C1` (stereo partly drawn) [Example 49, 2-(((2S,4s,6S)-6-((4-(3-fluorophenyl)pyrimidin-2-yl)amino)spiro[3.3]heptan-2-yl)oxy) nicotinamide], the IC50 was 149 nM.
In turn, `COc1ccc2ncnc(N[C@H]3C[C@]4(C3)C[C@H](Oc3ncccc3C(N)=O)C4)c2c1` (stereo partly drawn) [Example 23] yielded an IC50 of 62 nM.
`[H][C@]1(Oc2ncccc2C(N)=O)C[C@]2(C[C@@H](Nc3ccnc(-c4cccc(C#N)c4)n3)C2)C1` (stereo partly drawn) [Example 66, 2-(((2S,4s,6S)-6-((2-(3-cyanophenyl)pyrimidin-4-yl)amino)spiro[3.3]heptan-2-yl)oxy)nicotinamide] yielded an IC50 of 1070 nM.
Under `NC(=O)c1cccnc1O[C@H]1C[C@@]2(C[C@H](Nc3nnc(-c4ccc(F)cc4)o3)C2)C1` (stereo partly drawn) [Example 17, 2-(((2S,4s,6S)-6-((5-(4-fluorophenyl)-1,3,4-oxadiazol-2-yl)amino)spiro[3.3]heptan-2-yl)oxy)nicotinamide] stands 70 nM.
In turn, `[H][C@]1(Oc2ncccc2C(N)=O)C[C@]2(C[C@@H](Nc3nccc(N4CCC(F)(F)C4)n3)C2)C1` (stereo partly drawn) [Example 38, 2-(((2S,4s,6S)-6-((4-(3,3-difluoro-pyrrolidin-1-yl)pyrimidin-2-yl)amino)spiro[3.3]heptan-2-yl)oxy) nicotinamide] registered an IC50 of 388 nM.
In the case of `[H][C@]1(Oc2ncccc2C(N)=O)C[C@]2(C[C@@H](Nc3ccnc(N4CCCC(F)(F)C4)n3)C2)C1` (stereo partly drawn) [Example 60, 2-(((2S,4s,6S)-6-((2-(3,3-difluoropiperidin-1-yl)pyrimidin-4-yl)amino)spiro[3.3]heptan-2-yl)oxy)nicotinamide], the IC50 was 220 nM.
Consider `Cn1cc(-c2cccc3sc(N[C@H]4C[C@]5(C4)C[C@H](Oc4ncccc4C(N)=O)C5)nc23)cn1` (stereo partly drawn) [Example 15, 2-(((2S,4s,6S)-6-((4-(l-methyl-1H-pyrazol-4-yl)benzo[d]thiazol-2-yl)amino)spiro[3.3]heptan-2-yl)oxy)nicotinamide], for which half-maximal inhibition (IC50) was put at 597 nM.
In the case of `COc1ccc(-c2csc(N[C@H]3C[C@]4(C3)C[C@H](Oc3ncccc3C(N)=O)C4)n2)cc1` (stereo partly drawn) [Example 8, 2-(((2S,4s,6S)-6-((4-(4-methoxyphenyl)thiazol-2-yl)amino)spiro[3.3]heptan-2-yl)oxy)nicotinamide], the IC50 stood at 115 nM.
In the case of `NC(=O)c1cccnc1O[C@H]1C[C@@]2(C[C@H](Nc3nc4ccc(F)cc4s3)C2)C1` (stereo partly drawn) [Example 2, 2-(((2S,4s,6S)-6-((6-fluorobenzo[d]thiazol-2-yl)amino)spiro[3.3]heptan-2-yl)oxy)nicotinamide], 156 nM corresponded to half-maximal inhibition (IC50).
Molecule `COc1ccc2c(N[C@H]3C[C@]4(C3)C[C@H](Oc3ncccc3C(N)=O)C4)ncnc2c1` (stereo partly drawn) [Example 25, 2-(((2S,4s,6S)-6-((7-methoxy-quinazolin-4-yl)amino)spiro[3.3]heptan-2-yl)oxy) nicotinamide] gave a 50% inhibitory concentration (IC50) of 165 nM.
With `NC(=O)c1cccnc1O[C@H]1C[C@@]2(C[C@H](Nc3ncc4ccc(F)cc4n3)C2)C1` (stereo partly drawn) [Example 30, 2-(((2S,4s,6S)-6-((7-fluoro-quinazolin-2-yl)amino)spiro[3.3]heptan-2-yl)oxy) nicotinamide] the figure was 235 nM; with `[H][C@]1(Oc2ncccc2C(N)=O)C[C@]2(C[C@@H](Nc3ccnc(-c4cccc(C(=O)N(C)C)c4)n3)C2)C1` (stereo partly drawn) [Example 67, 2-(((2S,4s,6S)-6-((2-(3-(dimethyl-carbamoyl)phenyl)pyrimidin-4-yl)amino)spiro[3.3]heptan-2-yl)oxy) nicotinamide], 1170 nM.
Turning to `[H][C@]1(Oc2ncccc2C(N)=O)C[C@]2(C[C@@H](Nc3ccnc(N4CCC(F)(F)CC4)n3)C2)C1` (stereo partly drawn) [Example 61, 2-(((2S,4s,6S)-6-((2-(4,4-difluoro-piperidin-1-yl)pyrimidin-4-yl)amino)spiro[3.3]heptan-2-yl)oxy) nicotinamide], inhibition was half-maximal at 334 nM (IC50).

Source of the values: US11299488B2, “Five membered-aminoheterocycle and 5,6-or 6,6-membered bicyclic aminoheterocyclic inhibitors of rock for the treatment of heart failure” (BRISTOL-MYERS SQUIBB COMPANY, priority 2017, dated 2022).
